What was measured:
[1] = target: biotinylated Avi-POLθ[2-894] (Homo sapiens (Human), UniProt O75417); assay: POLθ ATPase assay (ADP-Glo); conditions: n=2; read-out: Biochemical ATPase ADPGlo IC50
[2] = test system: DLD1 WT cells; assay: 7-day cell viability assay (CellTiter-Glo), DLD1 parental (WT); assay type: cell-based, human; conditions: Homo sapiens, DLD-1, 168 h, 7-day viability, n=2
[3] = test system: DLD1 BRCA2 (−/−) cells; assay: 7-day cell viability assay (CellTiter-Glo), DLD1 BRCA2 (−/−); assay type: cell-based, human; conditions: Homo sapiens, DLD-1, 168 h, 7-day viability, n=2, read-out: Viability IC50 (uM) DLD1 BRCA2 null
Outline: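 7-day growth assay in DLD1 cells with or without BRCA2; seeding densities chosen to keep log-linear growth. Compound: 10 uM top, 3-fold, 9 points. Endpoint: CTG ATP luminescence at RT.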

Sequence of biotinylated Avi-POLθ[2-894] (O75417 2-894): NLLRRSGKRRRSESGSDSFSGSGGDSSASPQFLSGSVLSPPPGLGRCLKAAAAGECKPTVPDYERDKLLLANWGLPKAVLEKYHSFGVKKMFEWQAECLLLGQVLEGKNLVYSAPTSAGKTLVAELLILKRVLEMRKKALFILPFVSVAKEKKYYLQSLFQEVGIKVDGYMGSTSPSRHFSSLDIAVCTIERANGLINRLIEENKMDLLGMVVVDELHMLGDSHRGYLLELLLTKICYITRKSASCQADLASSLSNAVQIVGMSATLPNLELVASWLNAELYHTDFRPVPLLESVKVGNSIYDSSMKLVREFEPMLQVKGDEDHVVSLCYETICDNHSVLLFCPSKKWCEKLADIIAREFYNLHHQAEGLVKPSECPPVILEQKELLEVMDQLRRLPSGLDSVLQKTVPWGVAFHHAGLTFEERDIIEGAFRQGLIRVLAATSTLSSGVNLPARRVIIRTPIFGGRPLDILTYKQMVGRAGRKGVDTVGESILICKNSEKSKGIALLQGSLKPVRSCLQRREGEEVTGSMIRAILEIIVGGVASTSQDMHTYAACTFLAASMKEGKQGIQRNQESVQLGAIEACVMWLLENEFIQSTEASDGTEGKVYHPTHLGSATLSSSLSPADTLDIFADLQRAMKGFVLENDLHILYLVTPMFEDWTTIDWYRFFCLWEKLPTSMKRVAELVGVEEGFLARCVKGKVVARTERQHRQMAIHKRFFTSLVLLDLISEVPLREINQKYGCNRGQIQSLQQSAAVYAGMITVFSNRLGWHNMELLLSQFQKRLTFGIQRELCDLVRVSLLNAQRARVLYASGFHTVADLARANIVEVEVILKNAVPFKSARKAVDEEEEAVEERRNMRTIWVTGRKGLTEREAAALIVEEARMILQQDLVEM

**Q.** What does the source list for `COc1cnc(Cl)cc1-c1cc(C)ncc1C(=O)Nc1nc2c(s1)CN(C(=O)c1cccc(C(F)F)n1)C2` [Example 18, 2′-chloro-N-(5-(6-(difluoromethyl)picolinoyl)-5,6-dihydro-4H-pyrrolo[3,4-d]thiazol-2-yl)-5′-methoxy-6-methyl-[4,4′-bipyridine]-3-carboxamide]?
**A.** IC50 [1]: 1 to 15 nM; IC50 [2]: 5 to 10 µM; IC50 [3]: 0.001 to 0.1 µM

**Q.** For `COc1cnc(Cl)cc1-c1cc(C)ncc1C(=O)Nc1nc2c(s1)CN(C(=O)c1cnccc1Cl)C2` [Example 19, 2′-chloro-N-(5-(4-chloronicotinoyl)-5,6-dihydro-4H-pyrrolo[3,4-d]thiazol-2-yl)-5′-methoxy-6-methyl-[4,4′-bipyridine]-3-carboxamide], which IC50 [1] is on record?
**A.** 1 to 15 nM

**Q.** And the IC50 [2]?
**A.** ≥ 10 µM

**Q.** What about the IC50 [3] of the same molecule?
**A.** 0.001 to 0.1 µM

**Q.** Which results are given for `COc1cnc(Cl)cc1-c1cc(C)ncc1C(=O)Nc1nc2c(s1)CN(C(=O)c1cccc(C(F)(F)F)n1)C2` [Example 21, 2′-chloro-5′-methoxy-6-methyl-N-(5-(6-(trifluoromethyl)picolinoyl)-5,6-dihydro-4H-pyrrolo[3,4-d]thiazol-2-yl)-[4,4′-bipyridine]-3-carboxamide]?
**A.** IC50 [1]: 1 to 15 nM; IC50 [2]: ≥ 10 µM; IC50 [3]: 0.001 to 0.1 µM

**Q.** With `COc1cnc(Cl)cc1-c1cc(C)ncc1C(=O)Nc1nc2c(s1)CN(C(=O)[C@H]1C[C@H](OC(F)(F)F)C1)C2` [Example 26, 2′-chloro-5′-methoxy-6-methyl-N-(5-((1r,3r)-3-(trifluoromethoxy)cyclobutane-1-carbonyl)-5,6-dihydro-4H-pyrrolo[3,4-d]thiazol-2-yl)-[4,4′-bipyridine]-3-carboxamide] as the molecule, how does the IC50 [1] read?
**A.** 1 to 15 nM

**Q.** And the IC50 [2]?
**A.** 5 to 10 µM

**Q.** And the IC50 [3]?
**A.** 0.001 to 0.1 µM

**Q.** What does the source list for `COc1cnc(Cl)cc1-c1cc(C)ncc1C(=O)Nc1nc2c(s1)CN(C(=O)c1cncc(Cl)c1)C2` [Example 28, 2′-chloro-N-(5-(5-chloronicotinoyl)-5,6-dihydro-4H-pyrrolo[3,4-d]thiazol-2-yl)-5′-methoxy-6-methyl-[4,4′-bipyridine]-3-carboxamide]?
**A.** IC50 [1]: 1 to 15 nM; IC50 [2]: 0.5 to 2 µM; IC50 [3]: 0.001 to 0.1 µM

**Q.** Which results are given for `COc1cnc(Cl)cc1-c1cc(C)ncc1C(=O)Nc1nc2c(s1)CN(C(=O)c1ncc(Cl)cn1)C2` [Example 35, 2′-chloro-N-(5-(5-chloropyrimidine-2-carbonyl)-5,6-dihydro-4H-pyrrolo[3,4-d]thiazol-2-yl)-5′-methoxy-6-methyl-[4,4′-bipyridine]-3-carboxamide]?
**A.** IC50 [1]: 1 to 15 nM; IC50 [2]: 2 to 5 µM; IC50 [3]: 0.001 to 0.1 µM

**Q.** Which IC50 [1] does the source give for `COc1cnc(Cl)cc1-c1cc(C)ncc1C(=O)Nc1nc2c(s1)CN(C(=O)c1cnc(C(F)F)cc1Cl)C2` [Example 36, 2′-chloro-N-(5-(4-chloro-6-(difluoromethyl)nicotinoyl)-5,6-dihydro-4H-pyrrolo[3,4-d]thiazol-2-yl)-S′-methoxy-6-methyl-[4,4′-bipyridine]-3-carboxamide] here?
**A.** 1 to 15 nM

**Q.** What about the IC50 [2] of the same molecule?
**A.** ≥ 10 µM

**Q.** What about the IC50 [3] of the same molecule?
**A.** 0.001 to 0.1 µM

**Q.** Which results are given for `COc1cnc(Cl)cc1-c1cc(C)ncc1C(=O)Nc1nc2c(s1)CN(C(=O)c1ncc(C(F)(F)F)cn1)C2` [Example 37, 2′-chloro-5′-methoxy-6-methyl-N-(5-(5-(trifluoromethyl)pyrimidine-2-carbonyl)-5,6-dihydro-4H-pyrrolo[3,4-d]thiazol-2-yl)-[4,4′-bipyridine]-3-carboxamide]?
**A.** IC50 [1]: 1 to 15 nM; IC50 [2]: ≥ 10 µM; IC50 [3]: 0.001 to 0.1 µM

**Q.** Which IC50 [1] does the source give for `COc1cnc(Cl)cc1-c1cc(C)ncc1C(=O)Nc1nc2c(s1)CN(C(=O)c1ncc(C(F)(F)F)cc1OC)C2` [Example 38, 2′-chloro-5′-methoxy-N-(5-(3-methoxy-5-(trifluoromethyl)picolinoyl)-5,6-dihydro-4H-pyrrolo[3,4-d]thiazol-2-yl)-6-methyl-[4,4′-bipyridine]-3-carboxamide] here?
**A.** 1 to 15 nM

**Q.** And the IC50 [2]?
**A.** ≥ 10 µM

**Q.** What about the IC50 [3] of the same molecule?
**A.** 0.001 to 0.1 µM

**Q.** How did the IC50 [1] turn out when `COc1cnc(Cl)cc1-c1cc(C)ncc1C(=O)Nc1nc2c(s1)CN(C(=O)c1cccnc1C(F)F)C2` [Example 39, 2′-chloro-N-(5-(2-(difluoromethyl)nicotinoyl)-5,6-dihydro-4H-pyrrolo[3,4-d]thiazol-2-yl)-5′-methoxy-6-methyl-[4,4′-bipyridine]-3-carboxamide] was run?
**A.** 1 to 15 nM

**Q.** And the IC50 [2]?
**A.** ≥ 10 µM

**Q.** And the IC50 [3]?
**A.** 0.001 to 0.1 µM

**Q.** With `COc1cnc(Cl)cc1-c1cc(C)ncc1C(=O)Nc1nc2c(s1)CN(C(=O)c1cnc(C(F)F)cn1)C2` [Example 40, 2′-chloro-N-(5-(5-(difluoromethyl)pyrazine-2-carbonyl)-5,6-dihydro-4H-pyrrolo[3,4-d]thiazol-2-yl)-5′-methoxy-6-methyl-[4,4′-bipyridine]-3-carboxamide] as the molecule, how does the IC50 [1] read?
**A.** 1 to 15 nM

**Q.** What about the IC50 [2] of the same molecule?
**A.** 5 to 10 µM

**Q.** And the IC50 [3]?
**A.** 0.001 to 0.1 µM

**Q.** For `COc1cnc(Cl)cc1-c1cc(C)ncc1C(=O)Nc1nc2c(s1)CN(C(=O)c1ccc(C(F)(F)F)nc1)C2` [Example 42, 2′-chloro-5′-methoxy-6-methyl-N-(5-(6-(trifluoromethyl)nicotinoyl)-5,6-dihydro-4H-pyrrolo[3,4-d]thiazol-2-yl)-[4,4′-bipyridine]-3-carboxamide], which IC50 [1] is on record?
**A.** 1 to 15 nM

**Q.** What about the IC50 [2] of the same molecule?
**A.** ≥ 10 µM

**Q.** What about the IC50 [3] of the same molecule?
**A.** 0.001 to 0.1 µM

**Q.** How did the IC50 [1] turn out when `COc1cnc(Cl)cc1-c1cc(C)ncc1C(=O)Nc1nc2c(s1)CN(C(=O)c1cc(C(F)(F)F)nn1C)C2` [Example 44, 2′-chloro-5′-methoxy-6-methyl-N-(5-(1-methyl-3-(trifluoromethyl)-1H-pyrazole-5-carbonyl)-5,6-dihydro-4H-pyrrolo[3,4-d]thiazol-2-yl)-[4,4′-bipyridine]-3-carboxamide] was run?
**A.** 1 to 15 nM

**Q.** And the IC50 [2]?
**A.** ≥ 10 µM

**Q.** What about the IC50 [3] of the same molecule?
**A.** 0.001 to 0.1 µM

**Q.** Which IC50 [1] does the source give for `COc1cnc(Cl)cc1-c1cc(C)ncc1C(=O)Nc1nc2c(s1)CN(C(=O)c1ncc(C)o1)C2` [Example 45, 2′-chloro-5′-methoxy-6-methyl-N-(5-(5-methyloxazole-2-carbonyl)-5,6-dihydro-4H-pyrrolo[3,4-d]thiazol-2-yl)-[4,4′-bipyridine]-3-carboxamide] here?
**A.** 1 to 15 nM

**Q.** And the IC50 [2]?
**A.** 2 to 5 µM

**Q.** And the IC50 [3]?
**A.** 0.001 to 0.1 µM

**Q.** What does the source list for `COc1cnc(Cl)cc1-c1cc(C)ncc1C(=O)Nc1nc2c(s1)CN(C(=O)c1nn(C)c3c1CCC3)C2` [Example 47, 2′-chloro-5′-methoxy-6-methyl-N-(5-(1-methyl-1,4,5,6-tetrahydrocyclopenta[c]pyrazole-3-carbonyl)-5,6-dihydro-4H-pyrrolo[3,4-d]thiazol-2-yl)-[4,4′-bipyridine]-3-carboxamide]?
**A.** IC50 [1]: 1 to 15 nM; IC50 [2]: 5 to 10 µM; IC50 [3]: 0.001 to 0.1 µM

**Q.** How did the IC50 [1] turn out when `COc1cnc(Cl)cc1-c1cc(C)ncc1C(=O)Nc1nc2c(s1)CN(C(=O)[C@H]1CC[C@@H](OC)CC1)C2` [Example 48, 2′-chloro-5′-methoxy-N-(5-((1s,4s)-4-methoxycyclohexane-1-carbonyl)-5,6-dibydro-4H-pyrrolo[3,4-d]thiazol-2-yl)-6-methyl-[4,4′-bipyridine]-3-carboxamide] was run?
**A.** 1 to 15 nM

**Q.** What about the IC50 [2] of the same molecule?
**A.** ≥ 10 µM

**Q.** What about the IC50 [3] of the same molecule?
**A.** 0.001 to 0.1 µM

**Q.** With `COc1cnc(Cl)cc1-c1cc(C)ncc1C(=O)Nc1nc2c(s1)CN(C(=O)c1cc(C)nn1C)C2` [Example 49, 2′-chloro-N-(5-(1,3-dimethyl-1H-pyrazole-5-carbonyl)-5,6-dihydro-4H-pyrrolo[3,4-d]thiazol-2-yl)-5′-methoxy-6-methyl-[4,4′-bipyridine]-3-carboxamide] as the molecule, how does the IC50 [1] read?
**A.** 1 to 15 nM

**Q.** And the IC50 [2]?
**A.** ≥ 10 µM

**Q.** And the IC50 [3]?
**A.** 0.001 to 0.1 µM

**Q.** Which results are given for `COc1cnc(Cl)cc1-c1cc(C)ncc1C(=O)Nc1nc2c(s1)CN(C(=O)c1cc(C)n(C(F)F)n1)C2` [Example 52, 2′-chloro-N-(5-(1-(difluoromethyl)-5-methyl-1H-pyrazole-3-carbonyl)-5,6-dihydro-4H-pyrrolo[3,4-d]thiazol-2-yl)-5′-methoxy-6-methyl-[4,4′-bipyridine]-3-carboxamide]?
**A.** IC50 [1]: 1 to 15 nM; IC50 [2]: ≥ 10 µM; IC50 [3]: 0.001 to 0.1 µM

**Q.** Which IC50 [1] does the source give for `CCc1cc(C(=O)N2Cc3nc(NC(=O)c4cnc(C)cc4-c4cc(Cl)ncc4OC)sc3C2)n(C)n1` [Example 57, 2′-chloro-N-(5-(3-ethyl-1-methyl-1H-pyrazole-5-carbonyl)-5,6-dihydro-4H-pyrrolo[3,4-d]thiazol-2-yl)-5′-methoxy-6-methyl-[4,4′-bipyridine]-3-carboxamide] here?
**A.** 1 to 15 nM

**Q.** What about the IC50 [2] of the same molecule?
**A.** ≥ 10 µM

**Q.** What about the IC50 [3] of the same molecule?
**A.** 0.001 to 0.1 µM

**Q.** For `CCc1cc(C(=O)N2Cc3nc(NC(=O)c4cnc(C)cc4-c4cc(Cl)ncc4OC)sc3C2)nn1C` [Example 58, 2′-chloro-N-(5-(5-ethyl-1-methyl-1H-pyrazole-3-carbonyl)-5,6-dihydro-4H-pyrrolo[3,4-d]thiazol-2-yl)-5′-methoxy-6-methyl-[4,4′-bipyridine]-3-carboxamide], which IC50 [1] is on record?
**A.** 1 to 15 nM

**Q.** What about the IC50 [2] of the same molecule?
**A.** ≥ 10 µM

**Q.** And the IC50 [3]?
**A.** 0.001 to 0.1 µM

**Q.** Which results are given for `COc1cnc(Cl)cc1-c1cc(C)ncc1C(=O)Nc1nc2c(s1)CN(C(=O)c1cc3n(n1)CCC3)C2` [Example 63, 2′-chloro-N-(5-(5,6-dihydro-4H-pyrrolo[1,2-b]pyrazole-2-carbonyl)-5,6-dihydro-4H-pyrrolo[3,4-d]thiazol-2-yl)-5′-methoxy-6-methyl-[4,4′-bipyridine]-3-carboxamide]?
**A.** IC50 [1]: 1 to 15 nM; IC50 [2]: 5 to 10 µM; IC50 [3]: 0.001 to 0.1 µM

**Q.** Which results are given for `COc1cnc(Cl)cc1-c1cc(C)ncc1C(=O)Nc1nc2c(s1)CN(C(=O)C1CC3(C1)CC(F)(F)C3)C2` [Example 64, 2′-chloro-N-(5-(6,6-difluorospiro[3.3]heptane-2-carbonyl)-5,6-dihydro-4H-pyrrolo[3,4-d]thiazol-2-yl)-5′-methoxy-6-methyl-[4,4′-bipyridine]-3-carboxamide]?
**A.** IC50 [1]: 1 to 15 nM; IC50 [2]: 5 to 10 µM; IC50 [3]: 0.001 to 0.1 µM

**Q.** With `COc1cnc(Cl)cc1-c1cc(C)ncc1C(=O)Nc1nc2c(s1)CN(C(=O)c1nn(C)c(C)c1F)C2` [Example 66] as the molecule, how does the IC50 [1] read?
**A.** 1 to 15 nM

**Q.** And the IC50 [2]?
**A.** 5 to 10 µM

**Q.** And the IC50 [3]?
**A.** 0.001 to 0.1 µM
